Changes are numbered by the printed parent chain.
Experiments:
Format in all cases: cell-based
ABCG36/PDR8/PEN3 [1] = biological target: T1, ABCG36/PDR8/PEN3 (Arabidopsis thaliana, UniProt Q9XIE2); experiment: radiolabel export from transfected N. benthamiana protoplasts; also stimulates ATPase in microsomes; specific binding to Arabidopsis microsomes; conditions: labelled compound; export 25 °C, 15 min; ATPase with 50 μM compound at pH 9.0; binding at 10 nM
T1 construct: full length, 35S:ABCG36-GFP (GFP tag kept), Agrobacterium-transfected Nicotiana benthamiana mesophyll protoplasts or microsomes; full-size PDR-type ABC transporter
T1 sequence (Q9XIE2 1-1469): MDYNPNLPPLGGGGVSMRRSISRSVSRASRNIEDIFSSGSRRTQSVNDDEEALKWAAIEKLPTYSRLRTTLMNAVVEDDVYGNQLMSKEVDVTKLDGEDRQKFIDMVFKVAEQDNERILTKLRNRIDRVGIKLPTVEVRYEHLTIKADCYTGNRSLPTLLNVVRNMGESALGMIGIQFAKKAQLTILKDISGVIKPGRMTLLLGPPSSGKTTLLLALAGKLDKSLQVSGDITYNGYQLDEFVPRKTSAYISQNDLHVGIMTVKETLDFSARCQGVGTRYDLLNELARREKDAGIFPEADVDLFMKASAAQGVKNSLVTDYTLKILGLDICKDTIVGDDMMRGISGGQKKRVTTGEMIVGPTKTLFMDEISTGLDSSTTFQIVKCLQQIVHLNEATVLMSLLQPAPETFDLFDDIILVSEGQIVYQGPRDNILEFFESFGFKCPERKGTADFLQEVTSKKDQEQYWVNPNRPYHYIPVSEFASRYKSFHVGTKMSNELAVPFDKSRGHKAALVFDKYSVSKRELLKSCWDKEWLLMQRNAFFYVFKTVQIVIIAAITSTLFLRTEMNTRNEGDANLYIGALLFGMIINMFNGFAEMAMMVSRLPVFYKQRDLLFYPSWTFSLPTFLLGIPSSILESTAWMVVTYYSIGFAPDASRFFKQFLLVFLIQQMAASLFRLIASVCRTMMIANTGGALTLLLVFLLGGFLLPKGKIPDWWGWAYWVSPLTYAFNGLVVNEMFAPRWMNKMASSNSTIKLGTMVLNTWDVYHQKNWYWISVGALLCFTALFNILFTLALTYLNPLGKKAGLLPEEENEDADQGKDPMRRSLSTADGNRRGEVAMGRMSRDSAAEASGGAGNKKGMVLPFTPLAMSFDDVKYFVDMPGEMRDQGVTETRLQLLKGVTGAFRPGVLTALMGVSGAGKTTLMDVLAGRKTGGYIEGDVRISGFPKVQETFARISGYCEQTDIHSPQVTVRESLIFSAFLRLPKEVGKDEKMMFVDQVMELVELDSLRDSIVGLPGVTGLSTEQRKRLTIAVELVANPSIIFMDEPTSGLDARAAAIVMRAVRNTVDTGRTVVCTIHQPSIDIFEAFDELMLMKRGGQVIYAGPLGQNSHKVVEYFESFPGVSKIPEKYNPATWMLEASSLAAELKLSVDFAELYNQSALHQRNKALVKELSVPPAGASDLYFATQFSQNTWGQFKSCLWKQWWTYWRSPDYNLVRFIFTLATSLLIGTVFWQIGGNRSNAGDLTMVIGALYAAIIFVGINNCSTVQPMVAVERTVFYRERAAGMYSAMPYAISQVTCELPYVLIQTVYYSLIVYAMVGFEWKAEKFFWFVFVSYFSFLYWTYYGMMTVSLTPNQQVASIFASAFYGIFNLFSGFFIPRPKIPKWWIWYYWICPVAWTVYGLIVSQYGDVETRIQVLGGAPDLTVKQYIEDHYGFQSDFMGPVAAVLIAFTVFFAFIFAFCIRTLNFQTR

ABCG36/PDR8/PEN3 [2] = biological target: T2, ABCG36/PDR8/PEN3 (Arabidopsis thaliana, UniProt Q9XIE2, L704S); experiment: radiolabel export from transfected N. benthamiana protoplasts; conditions: labelled compound; export 25 °C, 15 min
T2 construct: full length, 35S:ABCG36-GFP (GFP tag kept), Agrobacterium-transfected Nicotiana benthamiana mesophyll protoplasts or microsomes; full-size PDR-type ABC transporter
T2 sequence (Q9XIE2 1-1469 L704S): T1 sequence (Q9XIE2 1-1469) with L704S

ABCG36/PDR8/PEN3 [3] = biological target: T3, ABCG36/PDR8/PEN3 (Arabidopsis thaliana, UniProt Q9XIE2, L704F); experiment: radiolabel export from transfected N. benthamiana protoplasts; also stimulates ATPase in microsomes; conditions: labelled compound; export 25 °C, 15 min; ATPase with 50 μM compound at pH 9.0
T3 construct: full length, 35S:ABCG36-GFP (GFP tag kept), Agrobacterium-transfected Nicotiana benthamiana mesophyll protoplasts or microsomes; full-size PDR-type ABC transporter
T3 sequence (Q9XIE2 1-1469 L704F): T1 sequence (Q9XIE2 1-1469) with L704F

## c1ccc2c(-c3nccs3)c[nH]c2c1 [CLX, 3-thiazol-2-yl-indole]
ABCG36/PDR8/PEN3 [1]
  radiolabel export from transfected N. benthamiana protoplasts; also stimulates A: stimulated by its substrates (IBA and CLX) but not by non-transported indolic compounds

## O=C(O)Cc1c[nH]c2ccccc12 [IAA]
ABCG36/PDR8/PEN3 [2]
  radiolabel export from transfected N. benthamiana protoplasts: gain-of-IAA transport for polar but uncharged serine

## O=C(O)CCCc1c[nH]c2ccccc12 [IBA, indole-3-butyric acid]
ABCG36/PDR8/PEN3 [3]
  radiolabel export from transfected N. benthamiana protoplasts; also stimulates A: the L704F (abcg36-5) variant had no effect on ABCG36-mediated IBA export
ABCG36/PDR8/PEN3 [1]
  radiolabel export from transfected N. benthamiana protoplasts; also stimulates A: stimulated by its substrates (IBA and CLX) but not by non-transported indolic compounds
